# Test results reported in paper PMC10969742, “A Phase I Study of the Oral Dual-Acting Pan-PI3K/mTOR Inhibitor Bimiralisib in Patients with Advanced Solid Tumors” (Cancers, 2024).
# “Also recorded” adds a separate entry of the source.
# Tests used:
# [1] = system: head and neck squamous cancer with loss of function NOTCH1T1997M mutations; conditions: eight patients, intermittent bimiralisib regimen; cited from earlier work
# advanced solid tumors = assay: Efficacy: objective tumor response per RECIST 1.1; type: in vivo, human
# Procedure: Efficacy of treatment was determined by measuring reported lesions at baseline and after every 2 cycles.
# [2] = system: patients with advanced solid tumors; assay: Phase 1 3 + 3 dose escalation: DLTs and MTD determination; type: in vivo
# Procedure: The primary objective of the study was to determine the MTD of bimiralisib administered according to three different dosing schedules. Bimiralisib was formulated as 20 mg and 80 mg capsules for oral administration. The first dosing schedule to be evaluated was continuous (once daily) dosing over a 21-day cycle. […] Patients enrolled in the continuous schedule and intermittent schedule A received a single lead-in dose, administered on […] prior to the start of the first 21-day treatment cycle, to characterize single-dose pharmacokinetics. Based on the previous first-in-human trial with bimiralisib, together with the expected toxicity profile of PI3K/mTOR inhibitors, the starting dose (dose-level 1) of bimiralisib in Study PQR309-003 was set at 80 mg daily.
# Enrollment of cohorts into the dose escalation followed a typical 3 + 3 design, with escalation/de-escalation based on the dose-limiting toxicities observed as described in Table 1 and Table 2. Up to 5 dose levels were planned in the continuous schedule to a maximum of 180 mg daily. For the intermittent schedules, up to 7 dose levels were planned, to a maximum of 240 mg daily. One dose level for de-escalation was planned for all schedules. Patient cohorts, consisting initially of three patients, were enrolled depending on the safety and tolerability of the initial cohort. Patients were treated until disease progression, unacceptable toxicity, patient’s request for withdrawal, investigator judgment, or death, whichever came first.
# Safety was monitored by physical examination, vital signs, weight, electrocardiogram, ECOG performance status, laboratory evaluations (including glucose monitoring), and patient self-reported mood questionnaires, as well as AEs. All AEs were coded with NCI Common Terminology Criteria for Adverse Events (CTCAE) v4.03 [27]. The MTD was defined as the maximum dose level at which ≤1/6 patients have DLTs. A DLT was defined by the occurrence of grade 3 or 4 AE that is possibly, probably, or definitely related to bimiralisib within the first 21 days of treatment. Bimiralisib treatment was interrupted if patients experienced any DLTs. If the patient derived benefit from the treatment as determined by the investigator, treatment could be resumed at a lower dose in agreement with the study sponsor.
# [3] = PR patient, head and neck squamous cancer, NOTCH1T1997M, intermittent schedule A 200 mg
smiles,measurement,setting,value
"Nc1cc(C(F)(F)F)c(-c2nc(N3CCOCC3)nc(N3CCOCC3)n2)cn1 [bimiralisib, 5-(4,6-Dimorpholino-1,3,5-triazin-2-yl)-4-(trifluoromethyl)pyridin-2-amine]","Confirmed PR, number of patients",[1],one
same,"SDs, number of patients",[1],three
same,"Best Overall Response: Complete response (CR), Number of Patients","advanced solid tumors; All Schedules, n = 70",0 n (%)
same,"Best Overall Response: Missing (response could not be assessed), Number of Patients","advanced solid tumors; All Schedules, n = 70",16 (22.9%) n (%)
same,"Best Overall Response: Non-CR/Non-PD, Number of Patients","advanced solid tumors; All Schedules, n = 70",4 (5.7%) n (%)
same,"Best Overall Response: Partial response, Number of Patients","advanced solid tumors; All Schedules, n = 70",1 (1.4%) n (%)
same,"Best Overall Response: Progressive disease (PD), Number of Patients","advanced solid tumors; All Schedules, n = 70",19 (27.1%) n (%)
same,"Best Overall Response: Stable disease, Number of Patients","advanced solid tumors; All Schedules, n = 70",30 (43%) n (%)
same,"Best Overall Response: Complete response (CR), Number of Patients",advanced solid tumors; Continuous (n = 21),0 n (%)
same,"Best Overall Response: Missing (response could not be assessed), Number of Patients",advanced solid tumors; Continuous (n = 21),9 (42.9%) n (%)
same,"Best Overall Response: Non-CR/Non-PD, Number of Patients",advanced solid tumors; Continuous (n = 21),0 n (%)
same,"Best Overall Response: Partial response, Number of Patients",advanced solid tumors; Continuous (n = 21),0 n (%)
same,"Best Overall Response: Progressive disease (PD), Number of Patients",advanced solid tumors; Continuous (n = 21),7 (33.3%) n (%)
same,"Best Overall Response: Stable disease, Number of Patients",advanced solid tumors; Continuous (n = 21),5 (23.8%) n (%)
same,"Best Overall Response: Complete response (CR), Number of Patients","advanced solid tumors; Intermittent A, n = 25",0 n (%)
same,"Best Overall Response: Missing (response could not be assessed), Number of Patients","advanced solid tumors; Intermittent A, n = 25",5 (20%) n (%)
same,"Best Overall Response: Non-CR/Non-PD, Number of Patients","advanced solid tumors; Intermittent A, n = 25",1 (4%) n (%)
same,"Best Overall Response: Partial response, Number of Patients","advanced solid tumors; Intermittent A, n = 25",1 (4%) n (%)
same,"Best Overall Response: Progressive disease (PD), Number of Patients","advanced solid tumors; Intermittent A, n = 25",6 (24%) n (%)
same,"Best Overall Response: Stable disease, Number of Patients","advanced solid tumors; Intermittent A, n = 25",12 (48%) n (%)
same,"Best Overall Response: Complete response (CR), Number of Patients","advanced solid tumors; Intermittent B, n = 24",0 n (%)
same,"Best Overall Response: Missing (response could not be assessed), Number of Patients","advanced solid tumors; Intermittent B, n = 24",2 (8.3%) n (%)
same,"Best Overall Response: Non-CR/Non-PD, Number of Patients","advanced solid tumors; Intermittent B, n = 24",3 (12.5%) n (%)
same,"Best Overall Response: Partial response, Number of Patients","advanced solid tumors; Intermittent B, n = 24",0 n (%)
same,"Best Overall Response: Progressive disease (PD), Number of Patients","advanced solid tumors; Intermittent B, n = 24",6 (25%) n (%)
same,"Best Overall Response: Stable disease, Number of Patients","advanced solid tumors; Intermittent B, n = 24",13 (54.2%) n (%)
same,Duration of response,advanced solid tumors; [3],8.4 months
same,Reduction in sum of target lesions per RECIST 1.1,advanced solid tumors; [3],85%
same,Time to response,advanced solid tumors; [3],45 days
same,Patients with PR as best overall response,advanced solid tumors; all 70 patients,1.4%
same,Complete response (CR),advanced solid tumors; all patients,No patient achieved CR
same,Patients with SD,"advanced solid tumors; all patients, 30 patients",43.0%
same,Number of partial responses,"advanced solid tumors; all patients, head and neck squamous cancer patient with NOTCH1T1997M mutation",one
same,Patients with SD,advanced solid tumors; continuous dosing,23.8%
same,Best overall response of single patient,"advanced solid tumors; head and neck squamous cancer, loss of function NOTCH1T1997M mutation, intermittent schedule A 200 mg",partial response
same,Patients with SD,advanced solid tumors; intermittent schedule A,48.0%
same,Patients with SD,advanced solid tumors; intermittent schedule B,54.2%
same,Maximum tolerated dose (MTD),[2]; continuous schedule (once daily),80 mg
same,"Dose-limiting toxicity (DLT), kind",[2]; in vivo,grade three fatigue
same,Patients with dose interruptions or discontinuation due to treatment-related AEs during first 21-day dosing cycle,[2]; in vivo,Four of these five
same,Maximum tolerated dose (MTD),"[2]; intermittent schedules A and B, up to 200 mg",No MTD was reached; also recorded: neither intermittent schedule reached MTD
